# Measurements from paper PMC10328743, “5-Nitro-3-(2-(4-phenylthiazol-2-yl)hydrazineylidene)indolin-2-one derivatives inhibit HIV-1 replication by a multitarget mechanism of action” (Frontiers in Cellular and Infection Microbiology, 2023).
# Tests used:
# HIV-1 RT-associated RDDP = biological target: T1, HIV-1 RT-associated RDDP (Human immunodeficiency virus type 1 group M subtype B, UniProt P04585); experiment: HIV-1 RNA-dependent DNA polymerase activity determination; format: biochemical; conditions: wt HIV-1 RT; three independent experiments, average ± standard deviation; read-out: RDDP IC50
# T1 construct: The 1:1 ratio between the p66/p51 subunits was also verified; His tag (implied only by Ni-NTA IMAC purification); made in house; host or cells: Escherichia coli M15
# Protocol: (§1) Escherichia coli strain M15 containing the p6HRT-prot vector (provided by Stuart Le Grice laboratory (NCI Frederick)) was grown to an optical density at 600 nm of 0.7 and induced with 1.7 mM of isopropyl β-D-1-thiogalactopyranoside (IPTG) for 4 h. Protein purification was carried out with a BioLogic LP system (Bio-Rad, Hercules, CA, USA) using a combination of immobilized metal affinity chromatography (IMAC) and ion exchange chromatography. Cell pellets were resuspended in lysis buffer (50 mM of sodium phosphate buffer, pH 7.8, containing 0.5 mg/mL of lysozyme), incubated on ice for 20 min, and, after the addition of NaCl to a final concentration of 0.3 M, were sonicated and centrifuged at 30,000 ×g for 1 h. The supernatant was loaded onto a Ni^2+-NTA-Sepharose column pre-equilibrated with loading buffer (50 mM of sodium phosphate buffer, pH 7.8, containing 0.3 M of NaCl, 10% glycerol, and 10 mM of imidazole) and washed thoroughly with wash buffer (50 mM of sodium phosphate buffer, pH 6.0, containing 0.3 M of NaCl, 10% glycerol, and 80 mM of imidazole). RT was eluted with an imidazole gradient in the wash buffer (0–0.5 M). Fractions were collected, and protein purity was checked by sodium dodecyl sulfate–polyacrylamide gel electrophoresis (SDS-PAGE) and found to be higher than 90%. The 1:1 ratio between the p66/p51 subunits was also verified. Enzyme-containing fractions were pooled and diluted 1:1 with 50 mM of sodium phosphate buffer, pH 7.0, containing 10% glycerol, and then loaded into a Hi-trap heparin HP GE (Healthcare LifeScience) pre-equilibrated with 10 column volumes of loading buffer (50 mM of sodium phosphate buffer, pH 7.0, containing 10% glycerol, and 150 mM of NaCl). The column was then washed with loading buffer, and the RT was eluted with Elute Buffer 2 (50 mM of sodium phosphate, pH 7.0, 10% glycerol, 1 M of NaCl). Fractions were collected, and the protein was dialyzed and stored in a buffer containing 50 mM of Tris-HCl, pH 7.0, 25 mM of NaCl, 1 mM of EDTA, and 50% glycerol. Catalytic activities and protein concentrations were determined. Enzyme-containing fractions were pooled, and aliquots were stored at −80°C.
# RDDP activity was measured as previously reported in 25-µl volume containing 60 mM of Tris‐HCl buffer, pH 8.1, 8 mM of MgCl2, 60 mM of KCl, 13 mM of DTT, 2.5 µM of poly(A)-oligo(dT), 100 µM of dTTP, increasing concentrations of inhibitors, whose dilution were made in water, and different amounts of enzymes according to a linear range of the dose–response curve. The reaction mixture was incubated for 30 min at 37°C and then stopped by the addition of EDTA. Reaction products were detected by pico green addition and measured with a multilabel counter plate reader Victor 3, equipped with filters for 502/523 nm.
# [1] = biological target: T2, HIV-1 RT-associated RNase H (Human immunodeficiency virus type 1 group M subtype B, UniProt P04585); experiment: HIV-1 DNA polymerase-independent RNase H activity determination; format: biochemical; conditions: wt HIV-1 RT; three independent experiments, average ± standard deviation; read-out: RNase H IC50
# T2 construct: The 1:1 ratio between the p66/p51 subunits was also verified; His tag (implied only by Ni-NTA IMAC purification); made in house; host or cells: Escherichia coli M15
# Protocol: as §1
# HIV RT-associated RNase H activity was measured as described ([Corona et al., 2016b]) in a 100-µl reaction volume containing 50 mM of Tris-HCl buffer, pH 7.8, 6 mM of MgCl2, 1 mM of dithiothreitol (DTT), 80 mM of KCl, 0.25 µM of hybrid RNA/DNA 5′-[…]-Fluorescin-3′ (high-performance liquid chromatography (HPLC), dry, QC: Mass Check) (available from Metabion) 5′-Dabcyl-[…]-3′ (HPLC, dry, QC: Mass Check), increasing concentrations of inhibitors, whose dilution were made in water, and different amounts of enzymes according to a linear range of the dose–response curve. The reaction mixture was incubated for 1 h at 37°C and stopped by the addition of EDTA, and products were measured with a multilabel counter plate reader Victor 3 equipped with filters for 490/528 nm.
# [2] = biological target: T3, HIV-1 IN (LEDGF-independent) (Human immunodeficiency virus type 1 group M subtype B, UniProt P12497); experiment: biochemical; conditions: strand-transfer activity with omission of LEDGF/p75; read-out: IC50 IN LEDGF-independent integration
# T3 construct: Preparation of recombinant full-length IN and LEDGF proteins; made in house; host or cells: E. coli BL21(DE3)
# Protocol: Proteins were expressed in E. coli BL21(DE3). Briefly, His-IN was purified by loading the precipitate of cell lysate onto a Ni-Sepharose column and eluting with a […] imidazole gradient (0–500 mM) in a HEPES buffer (50 mM, pH 7.5) containing NaCl (1 M), CHAPS (7.5 mM), and β-mercaptoethanol (2 mM). FLAG-IN was purified by loading the precipitate of cell lysate onto a phenyl-sepharose and ammonium sulfate gradient (0–800 mM) in a HEPES (pH 7.5, 50 mM) buffer containing NaCl (200 mM), CHAPS (7.5 mM), and β-mercaptoethanol (2 mM). Peak fractions were pooled, loaded onto a heparin column, and eluted with an increasing NaCl gradient (200 mM to 1 M) in a HEPES (pH 7.5, 50 mM) buffer containing CHAPS (7.5 mm) and β-mercaptoethanol (2 mM). Fractions containing integrase were pooled and stored in glycerol (10%) at −80°C.
# Briefly, IN (50 nM) was preincubated with increasing concentrations of compounds for 1 h at room temperature in a reaction buffer containing HEPES (20 mM, pH 7.5), DTT (1 mM), glycerol (1%), MgCl2 (20 mM), Brij-35 (0.05%), and bovine serum albumin (BSA) (0.1 mg/ml).
# [3] = Viability of infected MT4 cells (cytotoxicity); format: cell-based; conditions: human, MT4 cells infected with HIV-1; infected MT4 cells viability; three independent experiments, average ± standard deviation
# Protocol: (§2) HIV-1 replication was carried out in MT4 cells as previously reported ([Corona et al., 2016a]) using a molecular clone derived from the pNL4-3 ([Thierry et al., 2015]). A total of 120 ng of p24^gag antigen per 10^6 cells, corresponding to a multiplicity of infection (m.o.i.) of 0.3, was used for infection. […] Flow cytometry analysis was performed on a FACSCalibur flow cytometer (BD Biosciences, San Jose, CA, USA), and the results were analyzed using the […] software.
# MT4 cells = experiment: Viability of infected MT4 cells (cytotoxicity); format: cell-based; conditions: no toxicity up to the highest concentration tested
# Protocol: as §2
Structure (SMILES),IC50 (HIV-1 RT-associated RDDP),IC50 [1],IC50 [2],CC50 [3],toxicity against MT4 cells (MT4 cells)
O=C1Nc2ccc(Cl)cc2/C1=N/Nc1nc(-c2ccc(Cl)c(Cl)c2)cs1 [9b],24 ± 3 µM,8.8 ± 1.3 µM,> 100 µM,> 100 µM,> 100 µM
Cc1ccc(-c2csc(N/N=C3\C(=O)Nc4ccc([N+](=O)[O-])cc43)n2)cc1 [10a],18 ± 1.5 µM,8.5 ± 0.5 µM,35.5 ± 1.5 µM,> 100 µM,> 100 µM
